Results: ChEMBL document CHEMBL1201862, “PubChem BioAssay data set” (2004)
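Test compounds were applied to cells in 96-well plates for 48 hours at 5 doses. GI50 marks 50% less growth.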 Activity calls are given as the source filed them. Rule as the data show it: active = GI50 up to about 1.1 µM and inactive = higher.

Experiments:
Test in all cases: growth of human tumour cells (NCI), 48 h
EKVX = system: EKVX
DU-145 = system: DU-145
CAKI-1 = system: CAKI-1
HCT-15 = system: HCT-15
IGROV-1 = system: IGROV-1
SF-295 = system: SF-295
RXF 393 = system: RXF 393
SR = system: SR
A549 = system: A549
KM12 = system: KM12
SNB-19 = system: SNB-19
786-0 = system: 786-0
LOX IMVI = system: LOX IMVI
UACC-62 = system: UACC-62
NCI-H226 = system: NCI-H226
PC-3 = system: PC-3
OVCAR-5 = system: OVCAR-5
ACHN = system: ACHN
MDA-N = system: MDA-N
K562 = system: K562
M14 = system: M14
RPMI-8226 = system: RPMI-8226
TK-10 = system: TK-10
T47D = system: T47D
MDA-MB-435 = system: MDA-MB-435
Hs-578T = system: Hs-578T
NCI-H23 = system: NCI-H23
OVCAR-3 = system: OVCAR-3
SF-268 = system: SF-268
HT-29 = system: HT-29
OVCAR-4 = system: OVCAR-4
MOLT-4 = system: MOLT-4
SN12C = system: SN12C
BT-549 = system: BT-549
COLO 205 = system: COLO 205
SK-MEL-5 = system: SK-MEL-5
HOP-62 = system: HOP-62
MCF7 = system: MCF7
HCT-116 = system: HCT-116
MDA-MB-231 = system: MDA-MB-231
SNB-75 = system: SNB-75
OVCAR-8 = system: OVCAR-8
SK-OV-3 = system: SK-OV-3
NCI-H522 = system: NCI-H522
NCI/ADR-RES = system: NCI/ADR-RES
UO-31 = system: UO-31
HL-60 = system: HL-60
Malme-3M = system: Malme-3M
U-251 = system: U-251
UACC-257 = system: UACC-257
NCI-H460 = system: NCI-H460
SK-MEL-28 = system: SK-MEL-28
A498 = system: A498
SF-539 = system: SF-539
HCC 2998 = system: HCC 2998
SW-620 = system: SW-620
CCRF-CEM = system: CCRF-CEM
SK-MEL-2 = system: SK-MEL-2

S=C1Nc2cnc3ccccc3c2SC1c1ccccc1 (stereo not given)
GI50 (EKVX): > 100 µM (inactive)
GI50 (DU-145): > 100 µM (inactive)
GI50 (CAKI-1): > 100 µM (inactive)
GI50 (HCT-15): > 100 µM
GI50 (IGROV-1): > 100 µM (inactive)
GI50 (SF-295): 61.7 µM (inactive)
GI50 (RXF 393): 13 µM (inactive)
GI50 (SR): > 100 µM (inactive)
GI50 (A549): > 100 µM (inactive)
GI50 (KM12): > 100 µM (inactive)
GI50 (SNB-19): > 100 µM (inactive)
GI50 (786-0): > 100 µM (inactive)
GI50 (LOX IMVI): 97.5 µM (inactive)
GI50 (UACC-62): > 100 µM (inactive)
GI50 (NCI-H226): > 100 µM (inactive)
GI50 (PC-3): > 100 µM (inactive)
GI50 (OVCAR-5): > 100 µM (inactive)
GI50 (ACHN): > 100 µM (inactive)
GI50 (MDA-N): > 100 µM (inactive)
GI50 (K562): > 100 µM (inactive)
GI50 (M14): > 100 µM (inactive)
GI50 (RPMI-8226): > 100 µM (inactive)
GI50 (TK-10): > 100 µM (inactive)
GI50 (T47D): > 100 µM (inactive)
GI50 (MDA-MB-435): 83.4 µM (inactive)
GI50 (Hs-578T): 49.9 µM (inactive)
GI50 (NCI-H23): 96.4 µM (inactive)
GI50 (OVCAR-3): > 100 µM (inactive)
GI50 (SF-268): > 100 µM (inactive)
GI50 (HT-29): > 100 µM (inactive)
GI50 (OVCAR-4): > 100 µM (inactive)
GI50 (MOLT-4): > 100 µM (inactive)
GI50 (SN12C): > 100 µM (inactive)
GI50 (BT-549): > 100 µM (inactive)
GI50 (COLO 205): > 100 µM (inactive)
GI50 (SK-MEL-5): > 100 µM (inactive)
GI50 (HOP-62): 42.9 µM (inactive)
GI50 (MCF7): > 100 µM (inactive)
GI50 (HCT-116): > 100 µM (inactive)
GI50 (MDA-MB-231): > 100 µM (inactive)
GI50 (SNB-75): 28.4 µM (inactive)
GI50 (OVCAR-8): > 100 µM (inactive)
GI50 (SK-OV-3): 72.8 µM (inactive)
GI50 (NCI-H522): > 100 µM (inactive)
GI50 (NCI/ADR-RES): > 100 µM (inactive)
GI50 (UO-31): > 100 µM (inactive)
GI50 (HL-60): > 100 µM (inactive)
GI50 (Malme-3M): > 100 µM (inactive)
GI50 (U-251): > 100 µM (inactive)
GI50 (UACC-257): > 100 µM (inactive)
GI50 (NCI-H460): > 100 µM (inactive)
GI50 (SK-MEL-28): 92.3 µM (inactive)

O=C(O)CCn1cnc2c(S)ncnc21
GI50 (EKVX): > 100 µM (inactive)
GI50 (DU-145): > 100 µM (inactive)
GI50 (CAKI-1): > 100 µM (inactive)
GI50 (HCT-15): > 100 µM
GI50 (IGROV-1): > 100 µM (inactive)
GI50 (SF-295): > 100 µM (inactive)
GI50 (RXF 393): > 100 µM (inactive)
GI50 (SR): > 100 µM (inactive)
GI50 (A549): > 100 µM (inactive)
GI50 (A498): > 100 µM (inactive)
GI50 (KM12): > 100 µM (inactive)
GI50 (SNB-19): > 100 µM (inactive)
GI50 (786-0): > 100 µM (inactive)
GI50 (SF-539): > 100 µM (inactive)
GI50 (LOX IMVI): > 100 µM (inactive)
GI50 (UACC-62): > 100 µM (inactive)
GI50 (NCI-H226): > 100 µM (inactive)
GI50 (PC-3): > 100 µM (inactive)
GI50 (OVCAR-5): > 100 µM (inactive)
GI50 (ACHN): > 100 µM (inactive)
GI50 (MDA-N): > 100 µM (inactive)
GI50 (K562): > 100 µM (inactive)
GI50 (M14): > 100 µM (inactive)
GI50 (RPMI-8226): > 100 µM (inactive)
GI50 (TK-10): > 100 µM (inactive)
GI50 (T47D): > 100 µM (inactive)
GI50 (MDA-MB-435): > 100 µM (inactive)
GI50 (HCC 2998): > 100 µM (inactive)
GI50 (Hs-578T): > 100 µM (inactive)
GI50 (NCI-H23): > 100 µM (inactive)
GI50 (OVCAR-3): > 100 µM (inactive)
GI50 (SF-268): > 100 µM (inactive)
GI50 (HT-29): > 100 µM (inactive)
GI50 (OVCAR-4): > 100 µM (inactive)
GI50 (MOLT-4): > 100 µM (inactive)
GI50 (SN12C): > 100 µM (inactive)
GI50 (BT-549): > 100 µM (inactive)
GI50 (COLO 205): > 100 µM (inactive)
GI50 (SK-MEL-5): > 100 µM (inactive)
GI50 (HOP-62): > 100 µM (inactive)
GI50 (MCF7): > 100 µM (inactive)
GI50 (HCT-116): > 100 µM (inactive)
GI50 (MDA-MB-231): > 100 µM (inactive)
GI50 (SNB-75): > 100 µM (inactive)
GI50 (OVCAR-8): > 100 µM (inactive)
GI50 (SK-OV-3): > 100 µM (inactive)
GI50 (SW-620): > 100 µM (inactive)
GI50 (NCI-H522): > 100 µM (inactive)
GI50 (NCI/ADR-RES): > 100 µM (inactive)
GI50 (CCRF-CEM): > 100 µM (inactive)
GI50 (UO-31): > 100 µM (inactive)
GI50 (HL-60): > 100 µM (inactive)
GI50 (Malme-3M): > 100 µM (inactive)
GI50 (SK-MEL-2): > 100 µM (inactive)
GI50 (U-251): > 100 µM (inactive)
GI50 (UACC-257): > 100 µM (inactive)
GI50 (NCI-H460): > 100 µM (inactive)
GI50 (SK-MEL-28): > 100 µM (inactive)
